Experiments:
[1] = tested on: Mycobacterium tuberculosis Erdman (autoluminescent); test: GRinf, maximum normalised growth rate inhibition (unitless (-1 to 1)); higher = less effect (negative = killing)
Protocol: (§1)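 DiaMOND dose responses (10 doses, 1.5- or 2-fold spacing, equipotent around IC90) of autoluminescent M. tuberculosis Erdman in 8 in vitro models. Read-out is OD600, or luminescence for the intracellular (J774) and dormancy models, background-subtracted and normalised to untreated wells. A 3-parameter Hill fit gives Einf and AUC25 (area to IC25 normalised by IC25); GRinf comes from a Hill fit of the Hafner normalised growth rate. Biological replicates passing QC are averaged. Single drugs only.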

[2] = tested on: Mycobacterium tuberculosis Erdman (autoluminescent); test: AUC25, normalised area under dose response up to IC25 (fraction (0-1)); higher = more potent at low dose
Protocol: as §1

[3] = tested on: Mycobacterium tuberculosis Erdman (autoluminescent); test: Einf, fitted maximum growth inhibition (fraction); higher = stronger maximal inhibition
Protocol: as §1

[4] = in vitro model: acidic pH 5.7, time point: constant (~7 days, model-specific)
[5] = in vitro model: acidic pH 5.7, time point: terminal (~4-5 doublings, model-specific)
[6] = in vitro model: butyrate, time point: constant (~7 days, model-specific)
[7] = in vitro model: butyrate, time point: terminal (~4-5 doublings, model-specific)
[8] = in vitro model: cholesterol 0.05 mM, time point: constant (~7 days, model-specific)
[9] = in vitro model: cholesterol 0.05 mM, time point: terminal (~4-5 doublings, model-specific)
[10] = in vitro model: cholesterol-high 0.2 mM, time point: constant (~7 days, model-specific)
[11] = in vitro model: cholesterol-high 0.2 mM, time point: terminal (~4-5 doublings, model-specific)
[12] = in vitro model: dormancy (butyrate + nitrate, low O2), time point: constant (~7 days, model-specific)
[13] = in vitro model: dormancy (butyrate + nitrate, low O2), time point: terminal (~4-5 doublings, model-specific)
[14] = in vitro model: intracellular J774, time point: constant = terminal
[15] = in vitro model: standard 7H9 glycerol, time point: constant = terminal
[16] = in vitro model: valerate, time point: constant (~7 days, model-specific)
[17] = in vitro model: valerate, time point: terminal (~4-5 doublings, model-specific)

Structure (SMILES): COc1nc2ccc(Br)cc2cc1[C@@H](c1ccccc1)[C@@](O)(CCN(C)C)c1cccc2ccccc12 [bedaquiline]
- GRinf [1, 4]: -0.617
- GRinf [1, 5]: -0.475
- GRinf [1, 6]: -0.167
- GRinf [1, 7]: -0.138
- GRinf [1, 8]: -0.328
- GRinf [1, 9]: -0.335
- GRinf [1, 10]: -0.613
- GRinf [1, 11]: -0.647
- GRinf [1, 12]: 0.184
- GRinf [1, 13]: -0.0503
- GRinf [1, 14]: -0.319
- GRinf [1, 15]: -0.118
- GRinf [1, 16]: -0.142
- GRinf [1, 17]: -0.0955
- AUC25 [2, 4]: 0.109
- AUC25 [2, 5]: 0.0902
- AUC25 [2, 6]: 0.0777
- AUC25 [2, 7]: 0.0609
- AUC25 [2, 8]: 0.0895
- AUC25 [2, 9]: 0.0718
- AUC25 [2, 10]: 0.0559
- AUC25 [2, 11]: 0.0462
- AUC25 [2, 12]: 0.0618
- AUC25 [2, 13]: 0.0799
- AUC25 [2, 15]: 0.0758
- AUC25 [2, 16]: 0.0789
- AUC25 [2, 17]: 0.0549
- Einf [3, 4]: 0.921
- Einf [3, 5]: 0.988
- Einf [3, 6]: 0.964
- Einf [3, 7]: 0.984
- Einf [3, 8]: 0.766
- Einf [3, 9]: 0.946
- Einf [3, 10]: 0.975
- Einf [3, 11]: 1
- Einf [3, 12]: 0.908
- Einf [3, 13]: 0.979
- Einf [3, 14]: 0.979
- Einf [3, 15]: 0.97
- Einf [3, 16]: 0.92
- Einf [3, 17]: 0.963

Structure (SMILES): CC(C)/N=c1\cc2n(-c3ccc(Cl)cc3)c3ccccc3nc-2cc1Nc1ccc(Cl)cc1 [clofazimine]
- GRinf [1, 4]: 0.0361
- GRinf [1, 5]: -0.229
- GRinf [1, 6]: -0.0183
- GRinf [1, 7]: -0.0492
- GRinf [1, 8]: 0.329
- GRinf [1, 9]: 0.0361
- GRinf [1, 10]: -0.473
- GRinf [1, 11]: -0.945
- GRinf [1, 12]: 0.339
- GRinf [1, 13]: -0.0947
- GRinf [1, 14]: -0.696
- GRinf [1, 15]: -0.0492
- GRinf [1, 16]: -0.412
- GRinf [1, 17]: 0.239
- AUC25 [2, 4]: 0.0949
- AUC25 [2, 5]: 0.0888
- AUC25 [2, 6]: 0.0887
- AUC25 [2, 7]: 0.0859
- AUC25 [2, 8]: 0.129
- AUC25 [2, 9]: 0.13
- AUC25 [2, 10]: 0.12
- AUC25 [2, 11]: 0.114
- AUC25 [2, 12]: 0.115
- AUC25 [2, 13]: 0.0838
- AUC25 [2, 15]: 0.113
- AUC25 [2, 16]: 0.155
- AUC25 [2, 17]: 0.0638
- Einf [3, 4]: 0.748
- Einf [3, 5]: 0.966
- Einf [3, 6]: 0.963
- Einf [3, 7]: 0.989
- Einf [3, 8]: 0.527
- Einf [3, 9]: 0.844
- Einf [3, 10]: 0.938
- Einf [3, 11]: 1
- Einf [3, 12]: 0.876
- Einf [3, 13]: 0.922
- Einf [3, 14]: 0.997
- Einf [3, 15]: 0.965
- Einf [3, 16]: 0.88
- Einf [3, 17]: 0.895

Structure (SMILES): CC[C@@H](CO)NCCN[C@@H](CC)CO [ethambutol]
- GRinf [1, 4]: -0.121
- GRinf [1, 5]: -0.204
- GRinf [1, 6]: 0.144
- GRinf [1, 7]: 0.173
- GRinf [1, 8]: 0.0788
- GRinf [1, 9]: -0.193
- GRinf [1, 10]: -0.161
- GRinf [1, 11]: -0.768
- GRinf [1, 12]: 0.544
- GRinf [1, 13]: 0.295
- GRinf [1, 14]: -0.237
- GRinf [1, 15]: 0.208
- GRinf [1, 16]: 0.301
- GRinf [1, 17]: 0.297
- AUC25 [2, 4]: 0.103
- AUC25 [2, 5]: 0.0746
- AUC25 [2, 6]: 0.0706
- AUC25 [2, 7]: 0.0701
- AUC25 [2, 8]: 0.0906
- AUC25 [2, 9]: 0.0751
- AUC25 [2, 10]: 0.0267
- AUC25 [2, 11]: 0.0346
- AUC25 [2, 12]: 0.0829
- AUC25 [2, 13]: 0.0685
- AUC25 [2, 15]: 0.0599
- AUC25 [2, 16]: 0.0683
- AUC25 [2, 17]: 0.0665
- Einf [3, 4]: 0.785
- Einf [3, 5]: 0.963
- Einf [3, 6]: 0.86
- Einf [3, 7]: 0.918
- Einf [3, 8]: 0.621
- Einf [3, 9]: 0.907
- Einf [3, 10]: 0.85
- Einf [3, 11]: 1
- Einf [3, 12]: 0.777
- Einf [3, 13]: 0.914
- Einf [3, 14]: 0.977
- Einf [3, 15]: 0.852
- Einf [3, 16]: 0.728
- Einf [3, 17]: 0.832

Structure (SMILES): NNC(=O)c1ccncc1 [isoniazid]
- GRinf [1, 4]: 0.0942
- GRinf [1, 5]: -0.101
- GRinf [1, 6]: -0.0682
- GRinf [1, 7]: -0.137
- GRinf [1, 8]: -0.177
- GRinf [1, 9]: -0.208
- GRinf [1, 10]: -0.466
- GRinf [1, 11]: -0.567
- GRinf [1, 12]: 0.286
- GRinf [1, 13]: -0.0707
- GRinf [1, 14]: -0.113
- GRinf [1, 15]: 0.145
- GRinf [1, 16]: 0.0138
- GRinf [1, 17]: 0.0316
- AUC25 [2, 4]: 0.0571
- AUC25 [2, 5]: 0.0392
- AUC25 [2, 6]: 0.0446
- AUC25 [2, 7]: 0.0452
- AUC25 [2, 8]: 0.101
- AUC25 [2, 9]: 0.0895
- AUC25 [2, 10]: 0.0813
- AUC25 [2, 11]: 0.0704
- AUC25 [2, 12]: 0.0691
- AUC25 [2, 13]: 0.0601
- AUC25 [2, 15]: 0.0311
- AUC25 [2, 16]: 0.0515
- AUC25 [2, 17]: 0.0365
- Einf [3, 4]: 0.674
- Einf [3, 5]: 0.933
- Einf [3, 6]: 0.937
- Einf [3, 7]: 0.981
- Einf [3, 8]: 0.738
- Einf [3, 9]: 0.915
- Einf [3, 10]: 0.905
- Einf [3, 11]: 0.994
- Einf [3, 12]: 0.903
- Einf [3, 13]: 0.982
- Einf [3, 14]: 0.932
- Einf [3, 15]: 0.882
- Einf [3, 16]: 0.881
- Einf [3, 17]: 0.932

Reference: the supplement of paper PMC8617591
